Experimental findings from US4150126A, “Novel enol esters of steroids, compositions containing such compounds, processes for their preparation and methods of treatment therewith” (Aktiebolaget Leo, priority 1976, dated 1979) are described below.

One data set concerns ventral prostate. The data set is described as follows: Androgenic effect in castrated male rats (ventral prostate weight). The class given is in vivo. The following applies: both after subcutaneous and intraperitoneal administration; one daily injection for 7 days; preliminary experiments. As to the method: The androgenic activity, as described below, is determined with established methods (see e.g. Dorfman, R.: Methods in Hormone Research, vol. II, Acad. Press, New York and London 1962, p. 275).
The androgenic effect is assayed in castrated male rats. Beginning two weeks after castration the animals are given one daily injection of the compound for 7 days. The weight of the ventral prostate is determined on the 8th day.

For the next data set, the system named is Hepatoma AH 130. The data set is described as follows: Hepatoma AH 130 tumour growth inhibition in rats, i.p. Type of data set: in vivo, Sprague-Dawley rats. The note with it: Hepatoma AH 130, one injection i.p. The source says: (§1) LD50 is the dose that causes a 50 percent lethality of the animals, and ED50 is the dose that causes a 50 percent reduction of tumour size.
(§2) From the data below it is obvious that the compounds have a very low toxicity, and that the therapeutic indexes (T.I.), i.e. the ratios LD50/ED50, are very high.
(§3) The experimental design is in accordance with the standards set by the CCNSC (Cancer Cheomotherapy Reports, January 1959 and December 1962).
(§4) Experimental animals: Sprague-Dawley rats.
Tumour implant: 5 × 10^6 tumour cells i.p.
(§5) Therapy: One injection i.p. on the day following implantation.
(§6) Termination: The animals are killed on the 8th day.
(§7) Evaluation: Weights of tumours of test animals are compared
(§8) with those of control animals.

Data set [1] can be described thus: Thymolytic activity (Hilger, Endocrine Bioassay Data, assay 8). The class given is in vivo. The note with it: preliminary experiments. The source says: In preliminary experiments, invvestigating the thymolytic effect according to A. C.
Data set [2] in a line: Progestional activity, Clauberg test. Type of data set: in vivo. The note with it: standard scale of McPhail, preliminary experiments. The source says: The progestional activities of compounds 1:1, 1:2, 1:14, 2:2, and 2:11 are investigated in the Clauberg test using the prinicpal procedure as described by Elton and Edgren (Endocrinology 63 (1958) 464) and using the standard scale of McPhail (J. Physiol., London, 8 (1934) 145).

Data set [3] relates to Ehrlich ascites tumour, ELD hyperdiploid (46 chromosomes). The data set is described as follows: Ehrlich ascites tumour growth inhibition in mice, i.p. The note with it: one injection i.p.; for Tumour weight Treated/Control (%): killed on 8th day. The class given is in vivo, SPF NMRI mice.
From the text: as §3
Ehrlich ascites tumour, ELD hyperdiploid
Experimental animals: SPF NMRI mice.
Tumour implant: 2 × 10^6 tumour cells i.p.
as §5, §6
Evaluation: Weight of tumours of test animals compared with
those of control animals.

Data set [4] has as its system Walker carcinosarcoma 256. The data set is described as follows: Walker carcinosarcoma 256 tumour growth inhibition in rats, p.o. Type of data set: in vivo, Sprague-Dawley rats. The note with it: Walker carcinosarcoma 256, daily p.o. for 5 days.
From the text: as §1, §2, §3
Walker carcinosarcoma 256
as §4
Tumour implant: Tumour pieces with 2-4 mm diameter, subcu-
Therapy: Daily p.o. administration for 5 days starting on
the day following implantation.
Termination: The animals are killed on the 9th day.
as §7, §8

The structures appear in SMILES notation.

For the molecule `CC(=O)O[C@H]1CC[C@H]2[C@@H]3CC=C4C=C(OC(=O)Cc5ccc(N(CCCl)CCCl)cc5)CC[C@]4(C)[C@H]3CC[C@]12C` [1:3], the androgenic effect result in the data set with ventral prostate is recorded as “considerable effect”. Still for that read-out and setting: then `CC(=O)O[C@H]1CC[C@H]2[C@@H]3CC=C4C=C(OC(=O)CCCc5ccc(N(CCCl)CCCl)cc5)CC[C@]4(C)[C@H]3CC[C@]12C` [1:11, 17β-acetoxy-3-[4-(4-(N,N-bis(2-chloroethyl)amino)phenyl)butanoyloxy]androsta-3,5-diene], with “considerable effect”. The same measure, in the same setting: as for `CC(=O)O[C@H]1CC[C@H]2[C@@H]3CCC4CC(OC(=O)CCCc5ccc(N(CCCl)CCCl)cc5)=CC[C@]4(C)[C@H]3CC[C@]12C` (stereo partly drawn) [1:12, 17β-acetoxy-3-[4-(4-(N,N-bis(2-chloroethyl)amino)phenyl)butanoyloxy]androst-2-ene], the entry is “considerable effect”. `CCC(=O)O[C@H]1CC[C@H]2[C@@H]3CC=C4C=C(OC(=O)[C@H](Cc5ccc(N(CCCl)CCCl)cc5)NC(C)=O)CC[C@]4(C)[C@H]3CC[C@]12C` [1:13, 3-[(2S)-2-acetamido-3-(4-(N,N-bis(2-chloroethyl)amino)phenyl)propanoyloxy]-17β-propanoyloxyandrosta-3,5-diene]: the anti-tumour activity entry in the data set on Hepatoma AH 130 was “exhibit anti-tumour activity”. On to `CC(=O)OCC(=O)[C@@]1(OC(C)=O)CC[C@H]2[C@@H]3CC=C4C=C(OC(=O)CCCc5ccc(N(CCCl)CCCl)cc5)CC[C@]4(C)[C@H]3C(=O)C[C@@]21C` [1:15, 17,21-diacetoxy-3-[4-(4-(N,N-bis(2-chloroethyl)amino)phenyl)butanoyloxy]pregna-3,5-dien-11,20-dione], for which, in data set [1], the thymolytic effect entry was “significant activity”. On the same count and under the same terms, then `CC(=O)OCC(=O)[C@@]1(OC(C)=O)CC[C@H]2[C@@H]3CC=C4C=C(OC(=O)CCCc5ccc(N(CCCl)CCCl)cc5)CC[C@]4(C)[C@H]3CC[C@@]21C` [1:16, 17,21-diacetoxy-3-[4-(4-(N,N-bis(2-chloroethyl)amino)phenyl)butanoyloxy]-pregna-3,5-dien-20-one], with “significant activity”; and `CC(=O)OCC(=O)[C@H]1CC[C@H]2[C@@H]3CC=C4C=C(OC(=O)CCCc5ccc(N(CCCl)CCCl)cc5)CC[C@]4(C)[C@H]3CC[C@]12C` [1:17, 21-acetoxy-3-[4-(4-(N,N-bis(2-chloroethyl)amino)phenyl)butanoyloxy]-pregna-3,5-dien-20-one], with “significant activity”. Turning to `CC(=O)O[C@]1(C(C)=O)CC[C@H]2[C@@H]3CC=C4C=C(OC(=O)c5ccc(C)c(N(CCCl)CCCl)c5)CC[C@]4(C)[C@H]3CC[C@@]21C` [2:11, 17-acetoxy-3-[3-(N,N-bis(2-chloroethyl)amino)-4-methylbenzoyloxy]pregna-3,5-dien-20-one], the progestional activity entry in data set [2] is recorded as “considerable activity”. For the same molecule, in data set [3] (1000 mg/kg), the Mortality is recorded as 0/12 and the “Tumour weight Treated/Control (%)” value is recorded as 2%. On to `CC(=O)O[C@]1(C(C)=O)CC[C@H]2[C@@H]3CC=C4C=C(OC(=O)CCCc5ccc(N(CCCl)CCCl)cc5)CC[C@]4(C)[C@H]3CC[C@@]21C` [Compound 1:1, 17-acetoxy-3-/4-(4-(N,N-bis(2-chloroethyl)amino)phenyl)butanoyloxy/pregna-3,5-dien-20-one], for which, in data set [2], the progestional activity result is “considerable activity”. In data set [3] (500 mg/kg), the Mortality is on record as 0/12 and the “Tumour weight Treated/Control (%)” value is listed as 1%. Further, the anti-tumour activity result in the data set on Hepatoma AH 130 is reported as “exhibit anti-tumour activity”. With `CC(=O)[C@H]1CC[C@H]2[C@@H]3CC=C4C=C(OC(=O)CCCc5ccc(N(CCCl)CCCl)cc5)CC[C@]4(C)[C@H]3CC[C@]12C` [Compound 1:2, 3-/4-(4-(N,N-bis(2-chloroethyl)amino)phenyl)butanoyloxy/pregna-3,5-dien-20-one], in data set [2], the progestional activity entry was “considerable activity”. Same read-out and setting: as for `CC(=O)O[C@]1(C(C)=O)CC[C@H]2[C@@H]3CC=C4C=C(OC(=O)Cc5ccc(N(CCCl)CCCl)cc5)CC[C@]4(C)[C@H]3CC[C@@]21C` [Compound 1:14, 17-acetoxy-3-[4-(N,N-bis(2-chloroethyl)amino)phenylacetoxy]pregna-3,5-dien-20-one], the entry is “considerable activity”.

`CC(=O)O[C@H]1CC[C@H]2[C@@H]3CC[C@H]4CC(OC(=O)c5ccc(C)c(N(CCCl)CCCl)c5)=CC[C@]4(C)[C@H]3CC[C@]12C` [Compound 2:1, 17β-acetoxy-3-/3-(N,N-bis(2-chloroethyl)amino)-4-methylbenzoyloxy/androst-2-ene]: the anti-tumour activity result in data set [4] is “exhibit anti-tumour activity”.

With `C#C[C@]1(OC(C)=O)CC[C@H]2[C@@H]3CC=C4C=C(OC(=O)CCCc5ccc(N(CCCl)CCCl)cc5)CC[C@@H]4[C@H]3CC[C@@]21C` [Compound 2:2, 17β-acetoxy-3/4-(4-(N,N-bis(2-chloroethyl)amino)phenyl)butanoyloxy/-17α-ethynylestra-3,5-diene], the progestional activity result in data set [2] is recorded as “considerable activity”.
